These results are taken from patent publication US20120095067A1, “PHARMACEUTICAL COMPOSITION CONTAINING CARBOXYLOSARTAN AND A PRODUCTION METHOD THEREFOR” (JIN YANG PHARM. CO., LTD., priority 2009, published 2012).

For series [1] the following is noted: relative to losartan; cited from earlier work.
Series [2] can be described thus: Dissolution experiment, paddle method, 900 ml medium, 50 rpm. The class given is physicochemical. As to the method: By using the prepared Comparative example 1, dissolution experiments was made in a buffer having a pH of 1.2 (prepared by mixing 2.0 g of sodium chloride with 7.0 ml of hydrochloric acid and adding purified water until it totals 1 liter), a buffer having a pH of 4.0 (prepared by mixing 0.05 mol/L acetic acid solution with 0.05 mol/L sodium acetate solution (41:9) and adjusting a pH to 4.0), a buffer having a pH of 6.8 (prepared by mixing 250 ml of 0.2 mol/L potassium dihydrogen phosphate test solution with 118 ml of 0.2 mol/L sodium hydroxide test solution and adding water until it totals 1 liter), and purified water. In this instance, a paddle method was used, an amount of a dissolution medium was 900 ml, and a paddle rotation rate was 50 rpm. Like Comparative example 1, the dissolution of Examples 1-4 in a buffer having a pH of 1.2 was evaluated. Like Example 1, the dissolution of Examples 5-10 in a buffer having a pH of 1.2 was evaluated. Like Comparative example 1, the dissolution of Example 9 in different dissolution media was evaluated.

SMILES strings stand for the structures.

Consider `CCCCc1nc(Cl)c(C(=O)O)n1Cc1ccc(-c2ccccc2-c2nnn[nH]2)cc1` [losartan carboxylic acid, 2-butyl-4-chloro-1-[(2′-(1H-tetrazol-5-yl)[1,1′-biphenyl]-4-yl)methyl]-1H-imidazole-5-carboxylic acid], for which, in series [1], the “half life compared with losartan” value is “longer”. The “behaviour on contact with purified water or a buffer” value in series [2] is “gelled”.
